Results reported in PMC12662248 (ADMET & DMPK, 2025).
Entries after “also recorded” stand apart in the source; their conditions may differ. Read-outs that look alike come from different tables or passages of the source.

Key:
[1] = target: T1, recombinant 2D6 enzymes (Homo sapiens, UniProt P10635); settings: 60 min, 1 μM
Protocol: (§5) Human recombinant cytochrome 2D6 enzymes were diluted to 50 pmol mL^-1 in 50 mM phosphate buffer. […] Reactions were initiated by adding NADPH (final concentration: 1 mM), and aliquots were collected at 60 min. Samples were quenched with cold acetonitrile containing 0.1 % formic acid, centrifuged (12,000g, 15 min, 4 °C), then supernatants were dried, reconstituted, centrifuged (12,000g, 15 min, 4 °C), and subjected to an analysis on LC-HRMS..
(§6) Qualitative LC-HRMS analysis was conducted using an Ultimate 3000 pump (ThermoFisher, Germany) and a Q-Exactive Plus spectrometer. The mobile phase A was distilled water containing 0.1 % formic acid and the mobile phase B was acetonitrile containing 0.1 % formic acid. The liquid chromatography (LC) gradient spanned 22 min: 0 to 1.0 minute at 5 % B; 1.0 to 6.0 min, 5 to 15 % B; 6.0 to 14.0 mi, 15 to 25 % B; 14.0 to 16.0 min, 25 to 90 % B; 16.0 to 18.0 min, 90 to 95 % B; 18.0 to 20.0 min, 95 to 5 % B; and 20.0 to 22.0 min at 5 % B (flow rate: 0.3 mL min^-1). MS parameters included: spray voltage: 3.8 kV, capillary temperature: 320 °C, heater temperatures: 350 °C, sheath gas: 2.76 MPa, auxiliary nitrogen pressures: 0.7 MPa and tube lens voltage: 10 eV. The full scan Q1 resolution was set to 70,000, and the automatic gain control (AGC) target value was set to 5×10^5 intensity. The maximum injection time was limited to 50 ms. The dd-MS^2 resolution was set at 17,500, with the AGC target set at 5×10^4. External calibration was performed, yielding a deviation of less than 5.0 ppm. Data was processed using Xcalibur 4.1.31.9 software (ThermoFisher, Germany; https://www.thermofisher.com/order/catalog/product/OPTON-30965).
(§7) LC-HRMS raw data was extracted with Xcalibur, and metabolites were identified using Compound Discoverer 3.0 (ThermoFisher, Germany; https://www.thermofisher.com/order/catalog/product/OPTON-31061) by comparing fragment patterns between parent compounds, metabolites, and standards.

[2] = tested on: plateable dog hepatocytes; test: Metabolite identification in plateable dog hepatocytes; type: in vitro ADME; settings: 10 μM metoprolol, 72 hours
Protocol: (§1) Cryopreserved rat, dog, monkey and human hepatocytes were thawed by immersing vials in a pre-warmed 37 °C water bath. The cell pellets were then transferred to thawing medium and centrifuged to isolate viable cells. Then, hepatocytes were diluted to 0.7 million cells mL^-1 and seeded into collagen-coated 48-well plates (0.2 mL per well) in duplicate. After 6 hours of attachment, the plating medium was replaced with incubation medium containing 1 % Matrigel™. […] Reactions were quenched at 72 hours with cold acetonitrile containing 0.1 % formic acid, and supernatants were dried under nitrogen gas. The residues were reconstituted in acetonitrile/water (1:9 volume ratio) with 0.1 % formic acid and analysed LC-HRMS. The M7 metabolite was isolated, purified, and concentrated via a mass spectrometry switching valve, followed by sample reconstitution, and subsequent analysis on LC-HRMS.
(§2) The maximum injection time was limited to 50 ms.
(§3) Hepatocyte viability data was expressed as mean±SD.

[3] = tested on: plateable monkey hepatocytes; test: Metabolite identification in plateable monkey hepatocytes; type: in vitro ADME; settings: 10 μM metoprolol, 72 hours
Protocol: as §1, §2, §3

[4] = tested on: plateable rat hepatocytes; test: Metabolite identification in plateable rat hepatocytes; type: in vitro ADME; settings: 10 μM metoprolol, 72 hours
Protocol: as §1, §2, §3

[5] = tested on: plateable human hepatocytes; test: Metabolite identification in plateable human hepatocytes; type: in vitro ADME; settings: 10 μM metoprolol, 72 hours
Protocol: as §1, §2, §3

[6] = target: T1, recombinant 2D6 enzymes; test: Metabolite identification in recombinant cytochrome 2D6 enzymes; settings: human recombinant 2D6 enzymes, 1 μM metoprolol, 60 min
Protocol: as §5, §6, §7

[7] = tested on: plateable rat hepatocytes; test: Plateable hepatocytes cytotoxicity (CellTiter-Glo ATP assay), rat; type: cell-based; settings: 48 hours; for cytotoxicity in rat hepatocytes (words): 0 to 500 μM
Protocol: (§4) Cryopreserved plateable rat and human hepatocytes were thawed by immersing vials in a pre-warmed 37 °C water bath. The cell pellets were then transferred to thawing medium and centrifuged to isolate viable cells. […] Prior to the measurement, the cell culture plate was equilibrated to ambient temperature. Subsequently, 100 μL of CellTiter-Glo® reagent was dispensed into each well, followed by orbital shaking (5 min) to ensure complete cell lysis. After a 10-minute stabilization at room temperature, luminescence signals were quantified using an envision® multilabel plate reader.

[8] = tested on: plateable human hepatocytes; test: Plateable hepatocytes cytotoxicity (CellTiter-Glo ATP assay), human; type: cell-based; settings: 0 to 500 μM, 48 hours, regardless of ABT co-treatment
Protocol: as §4

[9] = tested on: plateable human hepatocytes; settings: cited from earlier work
[10] = tested on: plateable human hepatocytes; test: Plateable hepatocytes stability (metoprolol depletion); type: in vitro ADME
Protocol: Cryopreserved human hepatocytes were thawed by immersing vials in a pre-warmed 37 °C water bath. The cell pellets were then transferred to thawing medium and centrifuged to isolate viable cells. […] Aliquots were collected at 0, 2, 4, 8, 24, 48 and 72 hours, and reactions were quenched with cold acetonitrile/methanol (1:1, v/v) containing labetalol (100 ng mL^-1). After centrifugation (12,000g, 15 min, 4 °C), supernatants were analysed via LC-30AD-API5500 (LC-MS/MS, SCIEX, USA) for semiquantitative assessment. […] Hepatocyte viability data was expressed as mean±SD.

T1 sequence (P10635 whole entry): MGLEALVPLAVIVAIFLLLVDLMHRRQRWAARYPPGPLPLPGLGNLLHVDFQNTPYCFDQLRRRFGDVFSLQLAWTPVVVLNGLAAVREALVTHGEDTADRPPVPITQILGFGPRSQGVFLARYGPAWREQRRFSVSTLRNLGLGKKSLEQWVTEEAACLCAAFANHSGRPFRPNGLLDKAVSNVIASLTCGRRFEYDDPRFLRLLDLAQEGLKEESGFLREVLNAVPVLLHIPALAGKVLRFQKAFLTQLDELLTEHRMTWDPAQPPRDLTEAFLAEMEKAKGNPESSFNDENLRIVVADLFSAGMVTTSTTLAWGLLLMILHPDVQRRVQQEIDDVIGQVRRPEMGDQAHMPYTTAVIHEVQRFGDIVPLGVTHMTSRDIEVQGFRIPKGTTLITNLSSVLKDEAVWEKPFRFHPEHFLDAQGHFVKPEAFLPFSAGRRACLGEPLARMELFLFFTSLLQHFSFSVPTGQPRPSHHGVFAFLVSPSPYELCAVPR

Row | Structure (SMILES) | Relative peak area, 2D6, H [1] [%] | Relative peak area, plateable hepatocytes, D [2] [%] | Relative peak area, plateable hepatocytes, Mk [3] [%] | Relative peak area, plateable hepatocytes, R [4] [%] | Relative peak area, plateable hepatocytes, H [5] [%] | further results
1 | NCC(O)COc1ccc(CCO)cc1 (centres unmarked) [M3] | 1.6 | 0.7 | 0.1 |  |  | 
2 | CC(C)NCC(O)COc1ccc(C(=O)O)cc1 (centres unmarked) [M9] | 1.7 |  | 0.2 | 0.4 |  | 
3 | COCC(O)c1ccc(OCC(O)CNC(C)C)cc1 (stereo not drawn) [M10, α-hydroxy-metoprolol] | 20.1 | 9.4 | 5.6 | 24.4 | 2.7 | 
4 | CC(C)NCC(O)COc1ccc(CCO)cc1 (centres unmarked) [M13, O-desmethyl-metoprolol] | 22.8 | 20.5 | 0.1 | 3.8 | 6.0 | 
5 | CC(C)NCC(O)COc1ccc(CC(=O)O)cc1 (centres unmarked) [M17, metoprolol acid] |  | 19.9 | 82.6 | 57.2 | 14.6 | Relative peak area, 2D6, H [6]: 18.3%
6 | COCCc1ccc(OCC(O)CN)cc1 (centres unmarked) [M18] | 6.4 | 5.8 |  | 0.1 |  | 
7 | COCCc1ccc(OCC(O)CNC(C)C)cc1 (centres unmarked) [metoprolol, Metoprolol] |  |  |  |  |  | cytotoxicity in rat hepatocytes (words) ([7]; without ABT): weak cytotoxicity; also recorded: weak hepatotoxicity; cytotoxicity in rat hepatocytes (words) ([7]; without ABT, listed as Metoprolol): cytotoxic only at a concentration of 500 μM; effect of ABT pre-treatment on metoprolol cytotoxicity ([7]; rat hepatocytes, 500 μM metoprolol with 50 μM ABT): reversed the cytotoxic effect; reductions in cell viability ([7]; rat hepatocytes, 500 μM metoprolol, without ABT): > 30%; cytotoxicity in human hepatocytes (words) [8]: No significant reduction in cell viability; also recorded: no significant hepatotoxicity; cytotoxicity in human hepatocytes (words) ([8]; listed as Metoprolol): no observable cytotoxicity; in vivo clearance ([9]; correlating with plateable human hepatocyte clearance): 0.084 L/h/kg; clearance in hepatocytes ([9]; previously reported): 4.28 μL min^-1 per million cells; clearance in plateable human hepatocytes ([9]; previously reported): 2.2 ± 0.7 μL min^-1 per million cells; in vivo CLint ([10]; extrapolated from plateable human hepatocyte CLint): 0.0954 ± 0.0186 L/h/kg; in vitro intrinsic clearance (CLint) ([10]; plateable human hepatocytes, 1 μM, 72-hour incubation): 0.56±0.12 μL min^-1 per million cells
